From ChEMBL document CHEMBL5696442, “Discovery of type II inhibitors of TGFβ-activated kinase 1 (TAK1) and mitogen-activated protein kinase kinase kinase kinase 2 (MAP4K2)” (J Med Chem, 2015)
The source made the active and inactive calls. The rule behind the calls is not given here.

What was measured:
[1] = target: T1, Mitogen-activated protein kinase kinase kinase 15 (Homo sapiens) (UniProt Q6ZN16); assay: Inhibition of MAP3K15 Lys1 labeling site harbouring IAIKEIPERDSR in human A-375 cells at 5 uM by KiNativ Profiling analysis relative to control; format: cell-based
T1 sequence (whole entry): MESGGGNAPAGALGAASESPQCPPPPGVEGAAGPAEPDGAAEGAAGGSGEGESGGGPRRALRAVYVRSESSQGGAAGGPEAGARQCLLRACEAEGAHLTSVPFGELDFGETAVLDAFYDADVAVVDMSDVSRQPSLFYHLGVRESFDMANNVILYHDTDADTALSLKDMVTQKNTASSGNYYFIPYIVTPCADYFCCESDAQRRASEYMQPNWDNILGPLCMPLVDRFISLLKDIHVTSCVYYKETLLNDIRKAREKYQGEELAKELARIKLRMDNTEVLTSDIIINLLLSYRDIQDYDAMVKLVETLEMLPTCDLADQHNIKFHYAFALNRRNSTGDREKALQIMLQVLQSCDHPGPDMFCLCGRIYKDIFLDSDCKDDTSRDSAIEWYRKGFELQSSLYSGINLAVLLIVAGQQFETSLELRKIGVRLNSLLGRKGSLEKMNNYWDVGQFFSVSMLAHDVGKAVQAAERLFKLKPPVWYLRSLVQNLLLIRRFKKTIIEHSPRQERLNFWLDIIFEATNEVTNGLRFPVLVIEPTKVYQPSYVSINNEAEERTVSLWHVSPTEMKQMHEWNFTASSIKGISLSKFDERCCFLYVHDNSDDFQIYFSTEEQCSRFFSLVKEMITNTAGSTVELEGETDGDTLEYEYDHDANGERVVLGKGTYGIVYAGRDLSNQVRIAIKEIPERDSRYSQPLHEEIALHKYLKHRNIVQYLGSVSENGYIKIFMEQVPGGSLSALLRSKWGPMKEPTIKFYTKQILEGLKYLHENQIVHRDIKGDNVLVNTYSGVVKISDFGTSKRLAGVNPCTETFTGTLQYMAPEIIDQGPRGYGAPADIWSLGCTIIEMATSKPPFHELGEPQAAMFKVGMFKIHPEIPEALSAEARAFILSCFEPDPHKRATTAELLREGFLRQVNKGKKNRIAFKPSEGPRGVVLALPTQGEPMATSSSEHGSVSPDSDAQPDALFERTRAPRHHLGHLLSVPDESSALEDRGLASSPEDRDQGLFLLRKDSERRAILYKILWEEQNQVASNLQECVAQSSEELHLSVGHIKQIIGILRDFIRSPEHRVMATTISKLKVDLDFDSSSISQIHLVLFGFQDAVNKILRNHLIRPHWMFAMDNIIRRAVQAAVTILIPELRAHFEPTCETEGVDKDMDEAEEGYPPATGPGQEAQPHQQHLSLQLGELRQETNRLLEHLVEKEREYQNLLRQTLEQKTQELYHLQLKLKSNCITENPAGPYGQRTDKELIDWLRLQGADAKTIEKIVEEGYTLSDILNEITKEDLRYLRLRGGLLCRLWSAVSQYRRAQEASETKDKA

[2] = target: Dual specificity mitogen-activated protein kinase kinase; MEK1/2 (Homo sapiens) (UniProt P36507+Q02750); assay: Inhibition of MAP2K1/2 K2 labeling site in human Huh-7 cells at 1 uM by KiNativ Profiling analysis relative to control; format: cell-based
[3] = target: Peripheral plasma membrane protein CASK (Homo sapiens) (UniProt O14936); assay: Inhibition of CASK Lys1 labeling site in human A-375 cells at 0.5 uM by KiNativ Profiling analysis relative to control
[4] = target: Serine/threonine-protein kinase PAK 5 (Homo sapiens) (UniProt Q9P286); assay: Inhibition of PAK7 (unknown origin) at 10 uM by Ambit Kinomescan binding assay
[5] = test system: Tyrosine-protein kinase ABL1 (Homo sapiens), P00519 [F317L]; assay: Inhibition of ABL1 F317L mutant (unknown origin) at 10 uM by Ambit Kinomescan binding assay relative to control
[6] = target: Atypical kinase COQ8A, mitochondrial (Homo sapiens) (UniProt Q8NI60); assay: Inhibition of ADCK3 (unknown origin) at 1 uM by Ambit Kinomescan binding assay relative to control
[7] = target: 5'-AMP-activated protein kinase catalytic subunit alpha-1 (Homo sapiens) (UniProt Q13131); assay: Inhibition of AMPKa1 Lys2 labeling site in human A-375 cells at 5 uM by KiNativ Profiling analysis relative to control; format: cell-based
[8] = target: T2, Phosphatidylinositol 5-phosphate 4-kinase type-2 gamma (Homo sapiens) (UniProt Q8TBX8); assay: Inhibition of PIP4K2C ATP labeling site harbouring VKELPTLK in human A-375 cells at 5 uM by KiNativ Profiling analysis relative to control; format: cell-based
T2 sequence (whole entry): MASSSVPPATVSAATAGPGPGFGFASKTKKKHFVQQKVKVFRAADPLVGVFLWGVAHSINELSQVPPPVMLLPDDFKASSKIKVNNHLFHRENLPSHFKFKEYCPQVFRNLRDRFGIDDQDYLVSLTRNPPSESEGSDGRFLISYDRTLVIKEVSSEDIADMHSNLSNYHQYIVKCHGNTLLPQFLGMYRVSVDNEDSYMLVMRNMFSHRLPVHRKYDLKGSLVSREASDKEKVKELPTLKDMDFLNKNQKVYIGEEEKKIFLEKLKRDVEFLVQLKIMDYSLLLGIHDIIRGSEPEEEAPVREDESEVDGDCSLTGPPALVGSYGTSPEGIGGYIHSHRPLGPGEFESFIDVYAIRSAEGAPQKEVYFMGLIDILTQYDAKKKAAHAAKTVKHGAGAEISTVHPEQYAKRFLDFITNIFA

[9] = target: Tyrosine-protein kinase Srms (Homo sapiens) (UniProt Q9H3Y6); assay: Inhibition of SRMS (unknown origin) at 1 uM by Ambit Kinomescan binding assay relative to control
[10] = target: Serine/threonine-protein kinase tousled-like 2 (Homo sapiens) (UniProt Q86UE8); assay: Inhibition of TLK2 Lys1 labeling site in human A-375 cells at 0.5 uM by KiNativ Profiling analysis relative to control; format: cell-based
[11] = target: Tyrosine-protein kinase HCK (Homo sapiens) (UniProt P08631); assay: Inhibition of HCK (unknown origin) at 1 uM by Ambit Kinomescan binding assay relative to control; values are per cent of control
[12] = target: Serine/threonine-protein kinase 33 (Homo sapiens) (UniProt Q9BYT3); assay: Inhibition of STK33 (unknown origin) at 1 uM by Ambit Kinomescan binding assay relative to control
[13] = target: Mitogen-activated protein kinase kinase kinase 12 (Homo sapiens) (UniProt Q12852); assay: Inhibition of DLK Lys2 labeling site harbouring in human A-375 cells at 0.05 uM by KiNativ Profiling analysis relative to control
[14] = target: MAP/microtubule affinity-regulating kinase 3 (Homo sapiens) (UniProt P27448); assay: Inhibition of MARK3 Lys2 labeling site in human Huh-7 cell lysate at 1 uM by KiNativ Profiling analysis relative to control; format: subcellular

Chain of 5'-AMP-activated protein kinase catalytic subunit alpha-1 (Homo sapiens) (Q13131 whole entry, looked up): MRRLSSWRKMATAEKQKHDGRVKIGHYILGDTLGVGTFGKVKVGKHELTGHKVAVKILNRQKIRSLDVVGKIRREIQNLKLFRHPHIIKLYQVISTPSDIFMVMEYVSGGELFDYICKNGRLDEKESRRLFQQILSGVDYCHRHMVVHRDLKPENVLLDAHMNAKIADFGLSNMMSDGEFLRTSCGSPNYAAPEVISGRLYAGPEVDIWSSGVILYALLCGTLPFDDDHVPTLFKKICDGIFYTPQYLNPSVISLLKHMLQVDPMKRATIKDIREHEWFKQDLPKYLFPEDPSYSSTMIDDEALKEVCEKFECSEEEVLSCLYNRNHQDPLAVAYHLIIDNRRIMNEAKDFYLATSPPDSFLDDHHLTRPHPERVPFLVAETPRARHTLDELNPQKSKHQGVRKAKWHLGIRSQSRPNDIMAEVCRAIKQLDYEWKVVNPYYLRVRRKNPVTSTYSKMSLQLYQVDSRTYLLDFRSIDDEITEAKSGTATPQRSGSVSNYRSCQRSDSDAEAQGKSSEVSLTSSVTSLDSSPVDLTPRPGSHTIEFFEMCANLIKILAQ
Chain of Peripheral plasma membrane protein CASK (Homo sapiens) (O14936 whole entry, looked up): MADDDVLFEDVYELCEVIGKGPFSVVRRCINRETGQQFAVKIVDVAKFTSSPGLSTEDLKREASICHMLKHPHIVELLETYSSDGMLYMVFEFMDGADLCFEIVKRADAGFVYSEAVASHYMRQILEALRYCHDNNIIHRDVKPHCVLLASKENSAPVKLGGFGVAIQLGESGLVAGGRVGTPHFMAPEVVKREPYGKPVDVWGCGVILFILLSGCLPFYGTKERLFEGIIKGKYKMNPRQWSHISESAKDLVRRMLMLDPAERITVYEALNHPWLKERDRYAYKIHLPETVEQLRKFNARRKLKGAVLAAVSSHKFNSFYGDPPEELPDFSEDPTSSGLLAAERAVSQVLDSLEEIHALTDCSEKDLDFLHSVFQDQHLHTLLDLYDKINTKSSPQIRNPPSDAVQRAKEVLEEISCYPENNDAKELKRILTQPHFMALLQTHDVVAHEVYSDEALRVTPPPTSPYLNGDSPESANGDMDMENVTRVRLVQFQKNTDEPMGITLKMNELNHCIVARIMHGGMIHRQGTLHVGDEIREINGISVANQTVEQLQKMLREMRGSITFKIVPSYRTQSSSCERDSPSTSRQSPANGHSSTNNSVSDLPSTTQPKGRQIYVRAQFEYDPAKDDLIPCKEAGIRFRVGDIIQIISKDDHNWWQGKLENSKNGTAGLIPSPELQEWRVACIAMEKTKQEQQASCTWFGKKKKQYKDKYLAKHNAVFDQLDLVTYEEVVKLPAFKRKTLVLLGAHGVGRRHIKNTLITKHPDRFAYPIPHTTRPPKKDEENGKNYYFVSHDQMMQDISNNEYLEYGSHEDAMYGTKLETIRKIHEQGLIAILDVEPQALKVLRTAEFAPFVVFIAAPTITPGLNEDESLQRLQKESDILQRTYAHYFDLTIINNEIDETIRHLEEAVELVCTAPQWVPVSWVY
Chain of Tyrosine-protein kinase Srms (Homo sapiens) (Q9H3Y6 whole entry): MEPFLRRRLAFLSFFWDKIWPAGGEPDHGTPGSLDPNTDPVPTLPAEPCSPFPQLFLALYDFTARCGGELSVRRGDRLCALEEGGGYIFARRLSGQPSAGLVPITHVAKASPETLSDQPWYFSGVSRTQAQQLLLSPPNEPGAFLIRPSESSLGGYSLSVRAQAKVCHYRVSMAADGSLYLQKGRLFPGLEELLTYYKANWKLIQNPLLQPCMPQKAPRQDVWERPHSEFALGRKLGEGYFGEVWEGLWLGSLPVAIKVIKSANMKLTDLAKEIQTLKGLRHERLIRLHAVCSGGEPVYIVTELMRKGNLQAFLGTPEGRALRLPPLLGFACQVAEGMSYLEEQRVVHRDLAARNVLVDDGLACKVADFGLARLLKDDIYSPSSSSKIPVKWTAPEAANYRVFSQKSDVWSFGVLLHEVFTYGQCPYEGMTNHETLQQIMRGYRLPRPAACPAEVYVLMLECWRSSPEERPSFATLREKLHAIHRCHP
Chain of Serine/threonine-protein kinase PAK 5 (Homo sapiens) (Q9P286 whole entry, looked up): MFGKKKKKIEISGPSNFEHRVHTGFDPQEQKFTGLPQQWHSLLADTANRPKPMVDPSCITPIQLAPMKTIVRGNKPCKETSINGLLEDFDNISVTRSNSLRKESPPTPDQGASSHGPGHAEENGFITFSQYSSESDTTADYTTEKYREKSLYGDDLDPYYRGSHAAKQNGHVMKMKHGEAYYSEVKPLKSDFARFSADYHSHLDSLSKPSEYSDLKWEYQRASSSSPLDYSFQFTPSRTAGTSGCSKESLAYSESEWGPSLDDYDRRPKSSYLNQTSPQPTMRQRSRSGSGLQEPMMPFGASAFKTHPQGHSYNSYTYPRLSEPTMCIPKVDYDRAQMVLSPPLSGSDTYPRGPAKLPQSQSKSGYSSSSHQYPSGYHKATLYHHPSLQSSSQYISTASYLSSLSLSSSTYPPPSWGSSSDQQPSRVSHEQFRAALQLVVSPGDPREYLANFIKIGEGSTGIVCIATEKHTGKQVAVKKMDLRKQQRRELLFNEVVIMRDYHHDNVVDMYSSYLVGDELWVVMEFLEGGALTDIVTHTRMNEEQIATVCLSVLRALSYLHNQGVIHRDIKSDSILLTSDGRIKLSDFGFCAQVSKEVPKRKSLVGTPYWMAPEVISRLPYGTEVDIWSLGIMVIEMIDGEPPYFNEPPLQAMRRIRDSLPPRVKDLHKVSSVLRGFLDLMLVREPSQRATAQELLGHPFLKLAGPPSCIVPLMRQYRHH
Chain of Tyrosine-protein kinase ABL1 (Homo sapiens), P00519 [F317L] (P00519 whole entry F317L): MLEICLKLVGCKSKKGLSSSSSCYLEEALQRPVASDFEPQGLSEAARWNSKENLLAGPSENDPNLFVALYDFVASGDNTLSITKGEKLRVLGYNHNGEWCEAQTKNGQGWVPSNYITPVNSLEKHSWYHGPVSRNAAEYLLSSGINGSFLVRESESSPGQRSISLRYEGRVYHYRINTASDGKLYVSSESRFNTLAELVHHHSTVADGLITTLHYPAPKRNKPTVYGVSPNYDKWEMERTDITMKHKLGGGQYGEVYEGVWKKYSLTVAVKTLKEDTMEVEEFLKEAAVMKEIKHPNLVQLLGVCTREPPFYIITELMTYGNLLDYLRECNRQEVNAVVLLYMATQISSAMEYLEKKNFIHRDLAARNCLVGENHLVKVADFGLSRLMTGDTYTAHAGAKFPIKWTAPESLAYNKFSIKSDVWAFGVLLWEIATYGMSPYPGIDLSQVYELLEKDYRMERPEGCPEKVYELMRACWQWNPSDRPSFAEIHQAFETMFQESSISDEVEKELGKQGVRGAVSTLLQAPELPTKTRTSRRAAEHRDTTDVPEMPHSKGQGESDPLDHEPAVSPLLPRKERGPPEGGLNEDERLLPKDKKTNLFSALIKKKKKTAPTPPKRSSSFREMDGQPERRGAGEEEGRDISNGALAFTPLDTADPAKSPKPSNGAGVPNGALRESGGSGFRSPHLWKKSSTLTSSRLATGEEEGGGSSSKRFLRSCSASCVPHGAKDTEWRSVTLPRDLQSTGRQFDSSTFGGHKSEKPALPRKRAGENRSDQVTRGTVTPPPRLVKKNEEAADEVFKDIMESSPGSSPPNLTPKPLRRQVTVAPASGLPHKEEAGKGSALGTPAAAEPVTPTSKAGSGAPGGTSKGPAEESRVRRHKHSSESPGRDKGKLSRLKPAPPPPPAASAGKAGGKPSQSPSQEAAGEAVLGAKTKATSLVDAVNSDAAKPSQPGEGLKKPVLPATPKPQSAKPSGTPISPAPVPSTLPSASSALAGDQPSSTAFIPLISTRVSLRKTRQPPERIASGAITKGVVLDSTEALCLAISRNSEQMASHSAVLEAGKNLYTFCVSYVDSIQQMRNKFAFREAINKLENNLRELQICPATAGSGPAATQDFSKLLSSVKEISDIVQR
Chain of Mitogen-activated protein kinase kinase kinase 12 (Homo sapiens) (Q12852 whole entry, looked up): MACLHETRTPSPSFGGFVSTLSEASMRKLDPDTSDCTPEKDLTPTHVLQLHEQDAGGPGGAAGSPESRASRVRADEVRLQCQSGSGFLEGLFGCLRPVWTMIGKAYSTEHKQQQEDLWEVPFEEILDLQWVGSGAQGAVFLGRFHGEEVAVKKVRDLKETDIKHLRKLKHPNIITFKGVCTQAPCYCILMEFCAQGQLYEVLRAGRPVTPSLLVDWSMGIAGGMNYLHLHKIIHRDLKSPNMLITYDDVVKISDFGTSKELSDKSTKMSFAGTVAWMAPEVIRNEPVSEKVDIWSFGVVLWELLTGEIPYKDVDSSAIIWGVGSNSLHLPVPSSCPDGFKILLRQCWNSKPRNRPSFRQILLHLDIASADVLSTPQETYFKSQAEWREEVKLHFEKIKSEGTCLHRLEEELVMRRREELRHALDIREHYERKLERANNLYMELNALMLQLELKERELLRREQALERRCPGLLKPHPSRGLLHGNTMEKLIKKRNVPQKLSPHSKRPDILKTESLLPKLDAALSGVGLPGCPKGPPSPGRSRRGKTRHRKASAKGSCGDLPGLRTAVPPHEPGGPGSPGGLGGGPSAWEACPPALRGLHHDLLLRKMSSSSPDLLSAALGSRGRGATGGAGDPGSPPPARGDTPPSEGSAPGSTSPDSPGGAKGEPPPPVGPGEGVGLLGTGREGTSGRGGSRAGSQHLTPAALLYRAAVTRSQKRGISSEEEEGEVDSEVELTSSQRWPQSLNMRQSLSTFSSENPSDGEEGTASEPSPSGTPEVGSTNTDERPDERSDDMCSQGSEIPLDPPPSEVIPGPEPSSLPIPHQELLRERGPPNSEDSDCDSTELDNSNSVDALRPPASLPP

CCN1CCN(Cc2ccc(NC(=O)c3ccc(C)c(Oc4ccnc5[nH]ccc45)c3)cc2C(F)(F)F)CC1
inhibition [1]: -3.2%
inhibition [2]: 5.5%
inhibition [3]: 5.8%
inhibition [4]: inactive
inhibition [5]: 0.1%

CCN1CCN(Cc2ccc(NC(=O)c3ccc(C)c(/C=C/c4cnc5[nH]ccc5c4OC)c3)cc2C(F)(F)F)CC1
inhibition [6]: 100%
inhibition [7]: 18.5%
inhibition [8]: -6%
inhibition [9]: 34%
inhibition [10]: 30.2%
residual activity [11]: 0.5%
inhibition [12]: 78%
inhibition [13]: 9%

CNc1cc(Oc2cc(C(=O)Nc3cc(N4CCN(C)CC4)cc(C(F)(F)F)c3)ccc2C)ncn1
inhibition [14]: -4.1%
